Data from US11865104B2, “Antitumor TET2 modulating compounds” (THE CLEVELAND CLINIC FOUNDATION, priority 2017, dated 2024).
Entries after “also recorded” stand apart in the source; their conditions may differ.

What was measured:
K562 TET2^KO cells = experiment: Colony forming assay in TET2 knock-out K562 cells; format: cell-based, human; settings: K562 TET2^KO vs K562
Description: (§1) FIGS. 3A-3G provide graphs showing the In-vitro efficacy of TETi in the elimination of TET2MTcells. A. Leukemia cell lines express different level of TET2. B. Ratio of TET2 expression vs. Lamin C. The dose response curves of cell survival with different concentration of TETi76 D. LD50 plotted against the relative expression of TET2 and C. E. Colony forming abilities of K562 TET2^+/+ and TET2^−/− cells in the presence and absence of TETi76. Data is representative of 3 independent experiment performed separately. F. Colony forming abilities of two independent normal bone marrow cells (NBM) and SIGM5 cells in MethoCult in the presence and absence of TETi76. Data is the summary of three independent experiments performed separately. G. Bone marrow from Tet2^+/+, Tet2^+/− and Tet2^−/− mice were harvested and cultured in MethoCult in the presence or absence of TETi76.
(§2) Efficacy and specificity of TETi. We used established tet2^+/− vs. tet2^−/− mouse models as well as several human myeloid cell lines selected to harbor TET2^MT or to express low level of TET2 to determine the specificity, establish the read out and provide proof of concept for the proposed strategy. […] The IC50 of different cells against TETi76 is inversely correlated with TET-activity (FIG. 3).

SIGM5 = experiment: Growth suppression / cell survival dose response in leukemia cell lines; format: cell-based; settings: Homo sapiens, SIG-M5; SIGM5, least TET2 expression
Description: as §1, §2

MOLM13 = experiment: as above; format: cell-based; settings: Homo sapiens, MOLM-13; MOLM13, least TET2 expression
Description: as §1, §2

tet2^MT clones = experiment: In vivo mixed bone marrow transplant, CD45.2 vs CD45.1 ratio; parameters: species or system mice; settings: 80 mg/kg 5 days/week, irradiated CD45.1 recipients transplanted with mixed marrow
Experimental: FIGS. 4A-4E provide graphs and images showing the In-vivo efficacy of TETi in the elimination of cells with TET2^MT. […] Tet^mt bone marrow cells were mixed in the ratio of 1:2 with tet2^+/+ bone marrow cells isolated from Pep (CD45.1). The mixed bone marrow cells were treated either with DMSO or with TETi76 in MethoCult™. Cells were isolated and ratio of CD45.1 (Pep, tet2^+/+) and CD45.2 (tet2mt) was determined by flow using antibodies against CD45.1 and CD45.2. B. Tet2^+/− bone marrow cells were mixed in the ratio of 1:2 with Tet2^+/+ in MethoCult with the treatment of DMSO or TETi76. Ratio of Tet2^+/− vs Tet2^+/+ was measured by flow. C. […] Ratio of Tet2^+/− vs Tet2^+/+ was measured by flow. […] CD45.1+ vs. CD45.2+ was serially assessed.
To further validate the feasibility of our proposed strategy as a therapeutic principle, we used mixing experiments in which tet2^MT/tet2^WT were co-cultured at fixed ratios to mimic evolving tet2MT clone and the differences in isoform fractions served as read out. […] As expected, tet2^MT grew at faster rate in the controls as reflected in the increased ratio >1:1 of tet2^MT/tet2^WT, while TETi treatment selectively eliminated the tet2^MT cells as determined using CD45.1/CD45.2 surface markers on tet2^WT and tet2^MT bone marrow, respectively (FIGS. 4A&B). […] First we determined MTD utilizing a dose escalation in a group of 3 mice each. […]

HEL01 = experiment: Growth suppression / cell survival dose response in leukemia cell lines; format: cell-based, human; settings: HEL01, high TET2 expressing
Description: as §1, §2

K562 = experiment: as above; format: cell-based, human; settings: K562, high TET2 expressing
Description: as §1, §2

[1] = MTD by dose escalation in mice; settings: mouse, in vivo
Experimental: To further validate the feasibility of our proposed strategy as a therapeutic principle, we used mixing experiments in which tet2^MT/tet2^WT were co-cultured at fixed ratios to mimic evolving tet2MT clone and the differences in isoform fractions served as read out. In long-term culture of normal marrow from B6Cd45.1 Pep Boy vs. B6CD45.2 mice of tet2^+/− and tet2^−/− genetic background. Marrow cell from 3 mice/group were cultured in 1:2 ratio of tet2^MT/tet2^WT with/without TETi. Over the period of culture TETi effectively eliminated otherwise dominating tet2^+/− cells (FIG. 4). As expected, tet2^MT grew at faster rate in the controls as reflected in the increased ratio >1:1 of tet2^MT/tet2^WT, while TETi treatment selectively eliminated the tet2^MT cells as determined using CD45.1/CD45.2 surface markers on tet2^WT and tet2^MT bone marrow, respectively (FIGS. 4A&B). […] In vivo efficacy of TETi. […] First we determined MTD utilizing a dose escalation in a group of 3 mice each. […] The MTD was determined at 168 mg/kg. […] Once mice were fully recovered as determined by their weight, the ratio of tet2^MT and tet2^WT marrow was confirmed by CD45.1/CD45.2 cytometry prior to treatment. […] Ratio of CD45.2 vs. CD45.1 was determined at different time points (FIGS. 4D&E). […]

[2] = system: MOLM and K562 TET2 knockdown cells; experiment: Culture of TET2 knockdown cell lines; format: cell-based; settings: preliminary experiments
Gulo^−/−Tet2^+/− cells = experiment: hmC level in Gulo^−/−Tet2^+/− cells; format: cell-based
Description: We optimized assays to assess the impact of mutation or haploinsufficiency on dioxygenase activity in our laboratory. We deployed 2 independent methods for the quantification of hmC/mC. First, a semi quantitative method of dot blot and second a highly sensitive 2D-UPLCMS method. These methods were used to determine the relative activity of TET2 enzymatic function. We can quantify TET2 dioxygenase activity products in cell lines and patient's bone marrow cells with various types of TET2^MT (FIG. 3E) in genetically modified (retrovirally-transduced TET2 shRNA) K562 and MOLM13 cells and bone marrow from Tet2^−/− and Tet^+/− mice. As expected, haploinsufficiency of TET2 leads to gene-dose dependent decreases in 5hmC and further oxidized products.

Compound | colony forming, effect of TET2 knock-out on sensitivity (K562 TET2^KO cells) | IC50 (SIGM5) | IC50 (MOLM13) | growth of tet2^MT clones in vivo (ratio CD45.2 vs CD45.1) (tet2^MT clones) | sensitivity to treatment (HEL01) | sensitivity to treatment (K562) | mortality at MTD [1] | MTD at 3 months ([1]; dose escalation, groups of 3 mice, 5 days a week, weekly dose increments) | inhibitory effects compared to cells with scrambled shRNA [2] | levels of TET2 product hmC (Gulo^−/−Tet2^+/− cells)
C=C(CC(O)C(=O)OCC)C(=O)OCC (centres unmarked) [TETi76] | sensitized these cells to TETi76 | 11.2 µM | 9.6 µM | most pronounced against tet2^−/− compared to tet2^+/− genotype; also recorded: prevents clonal expansion Tet2MT cells in vivo | lowest sensitivity | lowest sensitivity | no mortality | 168 mg/kg | – | –
COC(=O)CCC(=O)C(=O)OC [DMKG] | – | – | – | – | – | – | – | – | differential and dose-dependent inhibitory effects | –
O=C1O[C@H]([C@@H](O)CO)C(O)=C1O [vitC, vitamin C] | – | – | – | – | – | – | – | – | differential and dose-dependent inhibitory effects | increases levels of the TET2 product hmC
